{"source": "paper PMC12169662", "about": "“De Novo-Designed APC/C Inhibitors Provide a Rationale for Targeting RING-Type E3 Ubiquitin Ligases” (Journal of Medicinal Chemistry, 2025)", "origin": "cited, not measured here", "biological_target": "APC/C", "details": "determined by the same methodology; ref not given; read-out: K i of apcin; cited from earlier work", "description": "To quantify the inhibitory effectiveness of H6, its IC50 was determined. To this end, we performed in vitro APC/C ubiquitination assays in the presence of H6 titrated from 0.01 to 100 μM (Figure S17B). […] To distinguish between competitive and noncompetitive inhibition, we determin ...", "data": [{"smiles": "Cc1ncc([N+](=O)[O-])n1CCOC(=O)NC(Nc1ncccn1)C(Cl)(Cl)Cl", "note": "(stereo not shown) [apcin]", "values": [{"measurement": "Ki", "result": 23, "unit": "µM"}]}]}
